The supplement of paper PMC10307832

What was measured:
Test in all cases: relative viability (nuclei count vs DMSO), 5 days (fraction); higher = more cells survive
[1] = compound: CC1CC(=O)N(C2=CN=C(N=C2N1C3CCCC3)NC4=C(C=C(C=C4)C(=O)NC5CCN(CC5)C)OC)C [NPK76-II-72-1] + CC(C)C[C@H](NC(=O)[C@H](Cc1ccccc1)NC(=O)c1cnccn1)B(O)O [Bortezomib] (partner 0.002 µM)
Procedure, shortened: (§1)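 Dosing by pin tool came one day after lung cancer cell lines were seeded in 1536-well plates, using either one drug or a fixed anchor-drug dose plus five library-drug doses (not always all listed) in √10 steps. After 5 days, nuclei were counted on 4× images. Relative viability is treated-well nuclei count divided by vehicle-well nuclei count, and values are medians of duplicate plates.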

[2] = compound: CC1CC(=O)N(C2=CN=C(N=C2N1C3CCCC3)NC4=C(C=C(C=C4)C(=O)NC5CCN(CC5)C)OC)C [NPK76-II-72-1] + C[C@@H](Oc1cc(-c2cnn(C3CCNCC3)c2)cnc1N)c1c(Cl)ccc(F)c1Cl [Crizotinib] (partner 1 µM)
Procedure, shortened: as §1

BI-2536 + Bortezomib = compound: CC[C@@H]1C(=O)N(C)c2cnc(Nc3ccc(C(=O)NC4CCN(C)CC4)cc3OC)nc2N1C1CCCC1 [BI-2536] + CC(C)C[C@H](NC(=O)[C@H](Cc1ccccc1)NC(=O)c1cnccn1)B(O)O [Bortezomib] (partner 0.002 µM)
Procedure, shortened: as §1

BI-2536 + AZD7762 = compound: CC[C@@H]1C(=O)N(C)c2cnc(Nc3ccc(C(=O)NC4CCN(C)CC4)cc3OC)nc2N1C1CCCC1 [BI-2536] + NC(=O)Nc1cc(-c2cccc(F)c2)sc1C(=O)N[C@H]1CCCNC1 [AZD7762] (partner 0.2 µM)
Procedure, shortened: as §1

| Cell Line | relative viability ([1]; first compound 0.01 µM) | relative viability ([1]; first compound 0.03162 µM) | relative viability ([1]; first compound 0.1 µM) | relative viability ([1]; first compound 0.3162 µM) | relative viability ([1]; first compound 1 µM) | relative viability ([2]; first compound 0.01 µM) | relative viability ([2]; first compound 0.03162 µM) | relative viability ([2]; first compound 0.1 µM) | relative viability ([2]; first compound 0.3162 µM) | relative viability ([2]; first compound 1 µM) | relative viability (BI-2536 + Bortezomib; first compound 0.01 µM) | relative viability (BI-2536 + Bortezomib; first compound 0.03162 µM) | relative viability (BI-2536 + Bortezomib; first compound 0.1 µM) | relative viability (BI-2536 + Bortezomib; first compound 0.3162 µM) | relative viability (BI-2536 + Bortezomib; first compound 1 µM) | relative viability (BI-2536 + AZD7762; first compound 0.01 µM) | relative viability (BI-2536 + AZD7762; first compound 0.03162 µM) | relative viability (BI-2536 + AZD7762; first compound 0.1 µM) | relative viability (BI-2536 + AZD7762; first compound 0.3162 µM) | relative viability (BI-2536 + AZD7762; first compound 1 µM) |
| --- | --- | --- | --- | --- | --- | --- | --- | --- | --- | --- | --- | --- | --- | --- | --- | --- | --- | --- | --- | --- |
| NCI-H1734 | 0.879 | 0.96 | 0.969 | 0.779 | 1.13 | 0.703 | 0.666 | 0.727 | 0.642 | 0.736 | 0.84 | 0.82 | 0.226 | 0.154 | 0.156 | 0.461 | 0.596 | 0.16 | 0.134 | 0.142 |
| HOP-62 | 0.743 | 0.754 | 0.433 | 0.916 | 0.824 | 0.85 | 0.907 | 0.75 | 0.896 | 0.982 | 0.603 | 1.34 | 0.329 | 0.114 | 0.103 | 0.505 | 0.653 | 0.235 | 0.15 | 0.101 |
| LOU-NH91 | 0.488 | 0.483 | 0.463 | 0.432 | 0.35 | 0.735 | 0.735 | 0.693 | 0.635 | 0.764 | 0.506 | 0.496 | 0.458 | 0.287 | 0.334 | 0.722 | 0.76 | 0.42 | 0.316 | 0.329 |
| ChaGo-K-1 | 0.988 | 0.945 | 0.994 | 0.744 | 1.01 | 1.11 | 1.18 | 1.11 | 1.12 | 1.19 | 0.905 | 0.852 | 0.469 | 0.301 | 0.281 | 0.828 | 0.854 | 0.644 | 0.241 | 0.202 |
| PC-14 | 0.809 | 0.849 | 0.892 | 0.839 | 1.08 | 0.872 | 0.944 | 0.904 | 0.809 | 1.03 | 0.851 | 0.835 | 0.665 | 0.0691 | 0.0558 | 0.41 | 0.395 | 0.32 | 0.0493 | 0.0531 |
| NCI-H1437 | 0.473 | 0.445 | 0.425 | 0.409 | 0.494 | 0.843 | 0.956 | 0.834 | 0.746 | 0.967 | 0.543 | 0.463 | 0.416 | 0.136 | 0.089 | 1.01 | 0.892 | 1.03 | 0.141 | 0.163 |
| NCI-H460 | 1.02 | 1.26 | 1.11 | 1.01 | 1.18 | 0.945 | 1.03 | 1.06 | 0.876 | 0.898 | 1.21 | 0.65 | 0.265 | 0.0115 | 0.0118 | 0.724 | 0.649 | 0.473 | 0.0346 | 0.0318 |
| NCI-H1666 | 0.9 | 0.801 | 0.73 | 0.647 | 1.03 | 0.855 | 1.03 | 0.92 | 0.917 | 1.09 | 0.681 | 0.874 | 0.332 | 0.251 | 0.308 | 0.803 | 0.851 | 0.827 | 0.411 | 0.368 |
| NCI-H1651 | 0.95 | 0.954 | 0.903 | 0.9 | 0.991 | 0.885 | 0.881 | 0.871 | 0.881 | 0.868 | 0.898 | 0.98 | 0.894 | 0.583 | 0.11 | 0.476 | 0.543 | 0.392 | 0.261 | 0.0882 |
| NCI-H1755 | 0.932 | 0.898 | 0.95 | 0.98 | 1.08 | 0.866 | 0.864 | 0.838 | 0.837 | 0.939 | 0.9 | 0.891 | 0.355 | 0.308 | 0.262 | 0.452 | 0.467 | 0.305 | 0.253 | 0.265 |
| HARA | 1.08 | 1.2 | 1.04 | 1.12 | 1.22 | 0.993 | 1.2 | 1.03 | 1.01 | 1.24 | 1.19 | 1.27 | 0.751 | 0.0898 | 0.0779 | 0.325 | 0.424 | 0.167 | 0.158 | 0.137 |
| NCI-H596 | 0.838 |  | 0.999 | 1 | 0.966 | 1 | 1.04 | 0.95 | 1.02 | 1.05 | 1.09 | 1.18 | 0.759 | 0.733 | 0.328 | 1.1 | 1.14 | 1.11 | 0.342 | 0.403 |
| NCI-H23 | 0.856 | 1.22 |  | 1.06 | 1.12 | 0.544 | 0.563 |  | 0.556 | 0.528 | 1.14 | 0.885 | 0.182 | 0.117 | 0.139 | 0.236 | 0.236 | 0.127 | 0.12 | 0.088 |
| LCLC-97TM1 | 0.638 | 0.727 | 0.561 | 0.606 | 0.703 |  | 0.414 | 0.438 | 0.259 | 0.354 | 0.658 | 0.408 | 0.0735 | 0.0639 | 0.0648 | 0.159 | 0.216 | 0.0989 | 0.0787 | 0.0721 |
| EPLC-272H | 0.984 | 0.916 | 0.773 | 0.829 | 0.975 | 0.865 | 0.865 | 1.02 | 0.892 | 0.91 | 0.939 | 0.891 |  | 0.786 | 0.101 | 0.198 | 0.231 | 0.0832 | 0.0551 | 0.0884 |
| NCI-H1915 | 0.981 | 1.04 | 0.848 | 0.865 | 1.02 | 0.87 | 0.969 | 0.874 | 0.891 | 0.876 | 1.02 | 0.965 | 0.613 | 0.439 | 0.0752 | 0.641 | 0.696 | 0.535 | 0.195 | 0.109 |
